For 32 molecules, IC50 results are on record in patent publication US10654808B2, “Tyrosine kinase inhibitor and pharmaceutical composition comprising same” (GUANGDONG RAYNOVENT BIOTECH CO., LTD., priority 2015, dated 2020).

For one assay, the target named is T1, VEGFR2 (Homo sapiens, UniProt P35968).
T1 construct: purchased Life technology
The experiment in a line: Z'-LYTE in vitro enzyme activity assay, VEGFR2. The class given is biochemical. To be noted: 100 μM ATP, 60 minutes, room temperature; read-out: IC50 detected by Z'-LYTE, VEGFR2. Summed up: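 Reaction with 3 nM VEGFR2, 2 μM Tyr1 peptide and 100 μM ATP in HEPES pH 7.5/MgCl2/EGTA/BRIJ-35, 1% DMSO, 60 min at room temperature; development reagent then 60 min at 23° C. Compounds tested at 11 threefold dilutions, 10 μM–0.17 nM final, in duplicate; IC50 from 4-parameter fit of inhibition.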

In the next assay the target is T2, FGFR1 (Homo sapiens, UniProt P11362).
T2 construct: purchased Life technology
The assay is described as follows: Z'-LYTE in vitro enzyme activity assay, FGFR1. The class given is biochemical. To be noted: 25 μM ATP, 60 minutes, room temperature; read-out: IC50 detected by Z'-LYTE, FGFR1. Summed up:
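Z′-LYTE FRET assay with 1 nM FGFR1, 2 μM Tyr4 peptide and 25 μM ATP in HEPES pH 7.5 with Mg/Mn, 60 min at room temperature, then development 60 min at 23 °C. Compounds tested at 11 concentrations from 10 μM to 0.17 nM in 1% DMSO. IC50 from 4-parameter fit of inhibition.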

The next assay has as its target T3, PDGFRB (Homo sapiens, UniProt P09619).
T3 construct: purchased Millipore
The experiment in a line: Z'-LYTE in vitro enzyme activity assay, PDGFRB. As to conditions: 100 μM ATP, 60 minutes, room temperature; read-out: IC50 detected by Z'-LYTE, PDGFRB. Type of assay: biochemical. Put shortly: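 Z′-LYTE FRET kinase assay using 40 nM PDGFRB, 2 μM Tyr4 peptide and 100 μM ATP in HEPES pH 7.5 with Mg2+/Mn2+ and 1% DMSO. The reaction ran 60 min at room temperature, followed by development for 60 min at 23 °C. IC50 values came from 4-parameter fits over 11 concentrations (10 μM–0.17 nM).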

The subject of a further assay is HUVEC. The experiment in a line: CellTiter-Glo luminescent cell viability assay, HUVEC stimulated with hVEGF-165. The class given is cell-based. To be noted: Homo sapiens, hVEGF-165 20 ng/ml, 72 hours, read-out: IC50 detected by CellTiter-Glo, HUVEC. The method, then:
The intracellular ATP changes were measured by CellTiter-Glo® Luminescent Cell Viability Assay. The IC50 value of the compounds was used as an index to evaluate the inhibitory effect of the compounds on HUVEC in vitro.
HUVEC cell line (ATCC), EGM-2 BulletKit (Lonza), hVEGF-165 (Cell Signaling), trypsin (Invitrogen), DPBS (Hyclone), 384 cell plate (Greiner), 384 compound plate (Greiner), CO2 incubator (Thermo), centrifuge (Eppendorf), Vi-cell cell counter (Beckman Coulter), Bravo Automatic Liquid Workstation (Agilent), Envision (Perkin Elmer)
B: Cell plating: HUVEC cells were resuspended with starved medium (only containing 2% FBS and 0.1% GA-1000) and diluted to a concentration of 20,000/mL. The diluted cells were added to a 384 plate (Greiner), 50 μl per well. The cell plates were placed in a 37° C., 5% CO2 incubator overnight.
C: Drug addition: the test compounds were diluted 4 times to obtain a total of 10 doses at a final concentration of 10 uM to 0.038 nM, two parallel wells. The middle plate was added with 47.6 uL of starved medium per well. 2.4 μl of compounds was transferred from a gradient dilution compound plate to a middle plate and mixed well. 5 μl of liquid was transferred from the middle plate to a cell plate. Incubate for 1 hour at 37° C. in a 5% CO2 incubator, 5 μl of starved medium containing hVEGF-165 (the final concentration was 20 ng/ml) and Heparin (the final concentration was 1 ng/m) were added and incubated at 37° C. in a 5% CO2 incubator for 72 hours.
D: After 72 hours, 30 μl of assay reagents was added and incubated at room temperature for 10-30 minutes, Envision was used to read the plate.
The reading was converted into suppression rate (%) (Max−Sample)/(Max−Min)*100%. Parameter curve fitting (Model 205 in XLFIT5, iDBS) was used to measure to obtain IC50 data.
On the technique in general: Cellular ATP, detected with luciferase, serves as a proxy for viable cell number.

T3 sequence (P09619 33-1106): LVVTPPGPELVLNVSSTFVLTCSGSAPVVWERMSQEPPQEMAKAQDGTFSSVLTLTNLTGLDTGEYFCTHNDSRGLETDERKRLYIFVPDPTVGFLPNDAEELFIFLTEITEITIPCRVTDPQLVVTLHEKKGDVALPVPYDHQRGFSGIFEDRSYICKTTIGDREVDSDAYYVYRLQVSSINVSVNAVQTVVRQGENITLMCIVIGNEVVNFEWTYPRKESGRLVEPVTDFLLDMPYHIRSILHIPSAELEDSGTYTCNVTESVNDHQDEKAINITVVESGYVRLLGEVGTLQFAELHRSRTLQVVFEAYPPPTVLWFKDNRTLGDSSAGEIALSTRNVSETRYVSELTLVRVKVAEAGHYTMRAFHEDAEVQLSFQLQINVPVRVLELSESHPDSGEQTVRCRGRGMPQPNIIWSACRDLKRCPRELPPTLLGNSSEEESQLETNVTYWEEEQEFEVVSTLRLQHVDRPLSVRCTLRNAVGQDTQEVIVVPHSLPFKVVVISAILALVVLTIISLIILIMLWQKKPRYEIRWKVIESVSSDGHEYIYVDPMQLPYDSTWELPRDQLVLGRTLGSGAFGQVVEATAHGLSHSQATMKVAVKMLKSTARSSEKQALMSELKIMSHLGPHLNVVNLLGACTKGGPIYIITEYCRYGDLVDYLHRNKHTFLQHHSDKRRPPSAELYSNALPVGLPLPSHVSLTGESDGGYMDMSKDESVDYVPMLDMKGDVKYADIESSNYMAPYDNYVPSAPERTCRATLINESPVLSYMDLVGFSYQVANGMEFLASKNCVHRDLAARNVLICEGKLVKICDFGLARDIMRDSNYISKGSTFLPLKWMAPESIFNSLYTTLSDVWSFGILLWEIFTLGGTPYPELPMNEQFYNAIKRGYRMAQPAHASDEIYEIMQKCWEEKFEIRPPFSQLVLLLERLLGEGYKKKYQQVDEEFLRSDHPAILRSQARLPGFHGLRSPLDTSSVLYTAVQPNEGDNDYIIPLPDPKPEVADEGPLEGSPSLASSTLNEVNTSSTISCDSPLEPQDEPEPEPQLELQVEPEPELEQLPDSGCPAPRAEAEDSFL
T2 sequence (P11362 22-822): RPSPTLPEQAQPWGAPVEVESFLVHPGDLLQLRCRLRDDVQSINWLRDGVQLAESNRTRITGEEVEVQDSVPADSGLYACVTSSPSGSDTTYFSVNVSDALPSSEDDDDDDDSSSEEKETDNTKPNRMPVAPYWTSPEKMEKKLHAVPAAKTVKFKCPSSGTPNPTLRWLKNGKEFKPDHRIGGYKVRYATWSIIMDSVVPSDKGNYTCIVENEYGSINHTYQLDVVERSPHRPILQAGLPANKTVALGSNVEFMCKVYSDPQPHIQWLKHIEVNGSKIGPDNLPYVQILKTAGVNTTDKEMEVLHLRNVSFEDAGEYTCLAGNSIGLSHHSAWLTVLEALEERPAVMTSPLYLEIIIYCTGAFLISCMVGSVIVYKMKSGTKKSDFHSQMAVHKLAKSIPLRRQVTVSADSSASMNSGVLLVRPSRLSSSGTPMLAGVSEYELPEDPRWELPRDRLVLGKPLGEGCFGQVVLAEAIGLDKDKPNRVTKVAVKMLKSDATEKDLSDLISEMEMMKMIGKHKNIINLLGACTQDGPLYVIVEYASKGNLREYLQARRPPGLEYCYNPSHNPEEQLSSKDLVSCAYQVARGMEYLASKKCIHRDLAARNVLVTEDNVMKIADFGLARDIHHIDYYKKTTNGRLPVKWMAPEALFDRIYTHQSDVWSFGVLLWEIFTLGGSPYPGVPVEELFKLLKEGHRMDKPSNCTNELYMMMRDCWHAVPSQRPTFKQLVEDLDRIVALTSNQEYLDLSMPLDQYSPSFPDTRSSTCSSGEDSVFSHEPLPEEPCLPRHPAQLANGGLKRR
T1 sequence (P35968 20-1356): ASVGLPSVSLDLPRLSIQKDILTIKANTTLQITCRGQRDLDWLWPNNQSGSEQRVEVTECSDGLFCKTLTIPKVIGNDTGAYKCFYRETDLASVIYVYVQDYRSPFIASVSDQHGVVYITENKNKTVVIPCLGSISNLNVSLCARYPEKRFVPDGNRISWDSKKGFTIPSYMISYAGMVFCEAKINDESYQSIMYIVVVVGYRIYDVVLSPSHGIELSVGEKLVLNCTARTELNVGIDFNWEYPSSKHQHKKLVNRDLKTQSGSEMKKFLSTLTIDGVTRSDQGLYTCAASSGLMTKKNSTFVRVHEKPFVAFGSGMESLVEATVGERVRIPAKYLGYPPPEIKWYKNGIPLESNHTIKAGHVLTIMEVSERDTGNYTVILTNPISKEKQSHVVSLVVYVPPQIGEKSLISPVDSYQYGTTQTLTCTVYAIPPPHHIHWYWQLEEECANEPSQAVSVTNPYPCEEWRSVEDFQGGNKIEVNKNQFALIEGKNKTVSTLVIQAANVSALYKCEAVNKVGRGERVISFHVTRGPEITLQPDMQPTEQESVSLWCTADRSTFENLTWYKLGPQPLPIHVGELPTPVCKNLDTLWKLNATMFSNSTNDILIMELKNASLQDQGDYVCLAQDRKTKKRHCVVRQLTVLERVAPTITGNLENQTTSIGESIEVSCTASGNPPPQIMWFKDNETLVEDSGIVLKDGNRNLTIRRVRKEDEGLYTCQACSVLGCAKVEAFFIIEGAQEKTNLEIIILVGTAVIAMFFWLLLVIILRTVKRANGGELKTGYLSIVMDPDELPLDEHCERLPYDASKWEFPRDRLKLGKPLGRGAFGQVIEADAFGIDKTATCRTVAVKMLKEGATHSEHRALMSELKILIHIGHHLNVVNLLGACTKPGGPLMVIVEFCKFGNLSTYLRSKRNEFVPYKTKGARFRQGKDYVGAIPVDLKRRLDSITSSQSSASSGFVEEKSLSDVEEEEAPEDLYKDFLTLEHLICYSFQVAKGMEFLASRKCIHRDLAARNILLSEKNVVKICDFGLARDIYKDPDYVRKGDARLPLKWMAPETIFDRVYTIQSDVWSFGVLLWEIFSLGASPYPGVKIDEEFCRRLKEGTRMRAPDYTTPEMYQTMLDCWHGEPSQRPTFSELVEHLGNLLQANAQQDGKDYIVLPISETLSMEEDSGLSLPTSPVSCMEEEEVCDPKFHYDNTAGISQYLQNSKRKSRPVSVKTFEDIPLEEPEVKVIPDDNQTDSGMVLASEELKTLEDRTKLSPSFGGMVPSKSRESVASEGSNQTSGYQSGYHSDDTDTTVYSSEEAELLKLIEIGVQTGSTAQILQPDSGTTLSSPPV

As a reminder, the IC50 is the concentration needed to halve the response being measured. In the case of `COc1cc2nccc(Oc3ccc4c(C(=O)NC5CC5)coc4c3)c2cc1C(N)=O` [Example 185], the IC50 on VEGFR2 is < 50 nM; on FGFR1, 50 to 200 nM; on PDGFRB it was 200 to 1000 nM; in the assay with HUVEC it was < 100 nM.
Consider `[2H]C([2H])([2H])NC(=O)c1coc2cc(Oc3ccnc4cc(OC)c(C(N)=O)cc34)c(F)cc12` [Example 209], for which the IC50 is 50 to 200 nM on VEGFR2, 50 to 200 nM on FGFR1, < 50 nM on PDGFRB and 100 to 1000 nM in the assay with HUVEC.
For the molecule `COc1cc2nccc(Oc3ccc(NC(=S)N4CC(F)(F)C4)c(Cl)c3F)c2cc1C(N)=O` [Example 95], the IC50 at VEGFR2 was < 50 nM; at FGFR1, 50 to 200 nM; at PDGFRB, 50 to 200 nM; in the assay on HUVEC, 100 to 1000 nM.
With `CCNC(=O)c1coc2cc(Oc3ccnc4cc(-c5cn(C)cn5)ccc34)ccc12` [Example 222], the IC50 is < 50 nM at VEGFR2, < 50 nM on FGFR1, 50 to 200 nM at PDGFRB and < 100 nM in the assay with HUVEC.
In the case of `COc1cc2nccc(Oc3ccc4nc(NC5CC5)sc4c3)c2cc1C(N)=O` [Example 131], the IC50 lay within 200 to 1000 nM on VEGFR2 and 100 to 1000 nM with HUVEC.
As to `COc1cc2nccc(Oc3ccc(NC(=S)NCC(F)F)c(Cl)c3)c2cc1C(N)=O` [Example 12], the IC50 at VEGFR2 was < 50 nM; at FGFR1, 50 to 200 nM; at PDGFRB it was 50 to 200 nM; in the assay with HUVEC it was < 100 nM.
On to `CNC(=O)c1coc2cc(Oc3ccnc4cc(-c5cn(C)cn5)ccc34)ccc12` [Example 225], for which the IC50 is < 50 nM at VEGFR2, < 50 nM on FGFR1, 50 to 200 nM on PDGFRB and < 100 nM in the assay on HUVEC.
Turning to `COc1cc2nccc(Oc3ccc(NC(=S)NCC4CC4)c(Cl)c3)c2cc1C(N)=O` [Example 59], the IC50 was < 50 nM on VEGFR2, 200 to 1000 nM on FGFR1, 50 to 200 nM on PDGFRB and 100 to 1000 nM in the assay with HUVEC.
Consider `Cn1cncc1-c1ccc2c(Oc3ccc(NC(=O)NC4CC4)c(Cl)c3F)ccnc2c1` [Example 215], for which the IC50 on VEGFR2 is < 50 nM; on FGFR1, 50 to 200 nM; at PDGFRB, 50 to 200 nM; with HUVEC, < 100 nM.
In the case of `Cn1cnc(-c2ccc3c(Oc4ccc(NC(=O)N5CC(F)(F)C5)c(Cl)c4F)ccnc3c2)c1` [Example 218], the IC50 on VEGFR2 is < 50 nM; at FGFR1, 50 to 200 nM; on PDGFRB, < 50 nM; with HUVEC, 100 to 1000 nM.
Take `Cn1cnc(-c2ccc3c(Oc4ccc(NC(=O)NC5CC5)c(Cl)c4)ccnc3c2)c1` [Example 221]: the IC50 is < 50 nM on VEGFR2, < 50 nM on FGFR1, 50 to 200 nM at PDGFRB and < 100 nM in the assay on HUVEC.
As to `COc1cc2nccc(Oc3ccc(NC(=S)N(C)C)c(Cl)c3)c2cc1C(N)=O` [Example 55], the IC50 was in the range of 50 to 200 nM at VEGFR2, 50 to 200 nM at FGFR1, 200 to 1000 nM at PDGFRB and 100 to 1000 nM in the assay with HUVEC.
With `COc1cc2nccc(Oc3ccc4oc(C(=O)NC5CC5)cc4c3)c2cc1C(N)=O` [Example 191], the IC50 on VEGFR2 lay in the range of 200 to 1000 nM; on FGFR1, 200 to 1000 nM; on PDGFRB it was 200 to 1000 nM; in the assay on HUVEC, 100 to 1000 nM.
Regarding `CCOCCCOc1cc2nccc(Oc3ccc(NC(=S)NC4CC4)c(Cl)c3)c2cc1C(N)=O` [Example 58], the IC50 was < 50 nM at VEGFR2, 200 to 1000 nM on FGFR1, 50 to 200 nM on PDGFRB and 100 to 1000 nM in the assay on HUVEC.
Take `Cn1cnc(-c2ccc3c(Oc4ccc5c(C(=O)NC6CC6)coc5c4)ccnc3c2)c1` [Example 223]: the IC50 is < 50 nM at VEGFR2, < 50 nM at FGFR1, 50 to 200 nM on PDGFRB and < 100 nM in the assay on HUVEC.
As for `CNC(=S)Nc1ccc(Oc2ccnc3cc(OC)c(C(N)=O)cc23)cc1Cl` [Example 28], the 50% inhibitory concentration (IC50) at VEGFR2 is < 50 nM; at FGFR1 it was 50 to 200 nM; on PDGFRB, < 50 nM; in the assay on HUVEC, < 100 nM.
Turning to `COc1cc2nccc(Oc3ccc4oc(C(=O)N5CC(F)(F)C5)cc4c3)c2cc1C(N)=O` [Example 190], the IC50 lay within 200 to 1000 nM on VEGFR2, 200 to 1000 nM on FGFR1, 200 to 1000 nM at PDGFRB and 100 to 1000 nM with HUVEC.
For the molecule `Cn1cnc(-c2ccc3c(Oc4ccc(NC(=O)N5CCCC5)c(Cl)c4F)ccnc3c2)c1` [Example 219], the IC50 at VEGFR2 was < 50 nM; at FGFR1 it was < 50 nM; on PDGFRB it was 50 to 200 nM; in the assay with HUVEC it was < 100 nM.
Regarding `CCNC(=O)Nc1ccc(Oc2ccnc3cc(-c4cn(C)cn4)ccc23)cc1Cl` [Example 220], the IC50 is < 50 nM on VEGFR2, < 50 nM on FGFR1, 50 to 200 nM on PDGFRB and < 100 nM in the assay on HUVEC.
In the case of `COc1cc2nccc(Oc3ccc(NC(=S)Nc4ccccc4)c(Cl)c3)c2cc1C(N)=O` [Example 2], the IC50 at VEGFR2 was 50 to 200 nM; on FGFR1 it was 200 to 1000 nM; on PDGFRB it was 50 to 200 nM; in the assay on HUVEC it was < 100 nM.
Regarding `Cc1c(OC[C@H](C)O)cn2ncnc(Oc3ccc(NC(=O)NC4CC4)c(Cl)c3)c12` [Example 127], the figures for the IC50 at VEGFR2 and in the assay with HUVEC were < 50 nM and < 100 nM, respectively.
For `COc1cc2nccc(Oc3ccc(NC(=S)N[C@H](C)CO)c(Cl)c3)c2cc1C(N)=O` [Example 21], the IC50 at VEGFR2 is < 50 nM; at FGFR1, 200 to 1000 nM; at PDGFRB it was 50 to 200 nM; in the assay on HUVEC, < 100 nM.
As for `COc1cc2nccc(Oc3ccc(Nc4c(NC5CC5)c(=O)c4=O)c(Cl)c3)c2cc1C(N)=O` [Example 130], the IC50 at VEGFR2 lay in the range of 200 to 1000 nM; in the assay on HUVEC it was 100 to 1000 nM.
Consider `COc1cc2nccc(Oc3ccc4c(c3)CCN4C(=S)NC3CC3)c2cc1C(N)=O` [Example 24], for which the IC50 at VEGFR2, at FGFR1 and at PDGFRB was 200 to 1000 nM each time.
Take `COc1cc2nccc(Oc3ccc(NC(=S)NCc4cccnc4)c(Cl)c3)c2cc1C(N)=O` [Example 20]: the values for the IC50 on VEGFR2, on FGFR1 and at PDGFRB were 50 to 200 nM, 200 to 1000 nM and < 50 nM, respectively.
Taken in the same sequence, the figures for `COc1cc2nccc(Oc3ccc4c(C(=O)N5CC[C@@H](F)C5)coc4c3)c2cc1C(N)=O` [Example 202] were 200 to 1000 nM, 200 to 1000 nM and 200 to 1000 nM.
The like results for `COc1cc2nccc(Oc3ccc4c(C(=O)N5CC(F)(F)C5)c[nH]c4c3)c2cc1C(N)=O` [Example 189] were, in that order, 200 to 1000 nM, 200 to 1000 nM and 200 to 1000 nM.
As for `COc1cc2nccc(Oc3ccc(NC(=S)NC4(C#N)CC4)c(Cl)c3)c2cc1C(N)=O` [Example 75], the IC50 on VEGFR2, at FGFR1 and at PDGFRB was 200 to 1000 nM throughout.
Regarding `COC(=O)c1cc2c(Oc3ccc(NC(=S)N4CC(F)(F)C4)c(Cl)c3)ccnc2cc1OC` [Example 178], the IC50 on VEGFR2, on FGFR1 and on PDGFRB was 200 to 1000 nM each time.
For `COc1cc2nccc(Oc3ccc(NC(=S)N4CCCC4)c(Cl)c3)c2cc1C(N)=O` [Example 32], the IC50 on VEGFR2 was < 50 nM; at FGFR1, 200 to 1000 nM; at PDGFRB it was 200 to 1000 nM.
Turning to `COc1cc2nccc(Oc3ccc(NC(=S)N4CC(F)(F)C4)cc3F)c2cc1C(N)=O` [Example 101], the half-inhibitory concentration (IC50) fell in the range of 200 to 1000 nM at VEGFR2, 200 to 1000 nM on FGFR1 and 50 to 200 nM on PDGFRB.
For `COc1cc2nccc(Oc3ccc(NC(=S)NC4CC4)cc3C(F)(F)F)c2cc1C(N)=O` [Example 42], the IC50 on VEGFR2, at FGFR1 and at PDGFRB was 200 to 1000 nM in each case.
